Data from PMC9307114, “Discovery and SAR analysis of phenylbenzo[d][1,3]dioxole-based proprotein convertase subtilisin/kexin type 9 inhibitors” (Journal of Enzyme Inhibition and Medicinal Chemistry, 2022).

Tests used:
PCSK9/LDLR PPI = PCSK9/LDLR PPI (Homo sapiens, UniProt Q8NBP7); assay: PCSK9-LDLR TR-FRET assay (PCSK9/LDLR PPI inhibitory screening); format: binding; settings: for inhibition at 10 µM: mean of three experiments, read-out: PCSK9 percentage inhibitory rate
Method: The PCSK9/LDLR time-resolved fluorescence resonance energy transfer (TR-FRET) assay was performed to evaluate the activity of synthesised compounds in inhibition of PCSK9-LDLR binding. The A series compounds were firstly synthesised for the PCSK9/LDLR PPI inhibitory test. […] Therefore, a group of A12 derivatives (B series) were synthesised with 4-chlorobenzyl substituted in the amino group and various substitutions introduced to the carboxylic group. […] To confirm whether the 4-chloromethyl group is essential for the PPI inhibitory activity, a new series of compounds (C series) were synthesised with the 4-chloromethyl group replaced by 4-methoxymethyl moiety. The inhibitory activity was observed, most likely resulting from the 4-methoxymethyl substitution (Table 3).
The compounds were dissolved in 100% DMSO; then 2 µL of the dilution was added to a 20 µL of reaction to keep […] in all of reactions. The binding reaction was conducted at room temperature. The reaction mixture in assay buffer contains PCSK9, the indicated amount of the inhibitor, ligand LDLR, and the reaction dyes. The reaction mixture was incubated for 120 min before detection of the TR-FRET signal. Fluorescence signals for both the donor and acceptor dyes were measured using a Tecan Infinite M1000 plate reader. TR-FRET was recorded as the ratio of the fluorescence of the acceptor and the donor dyes (acceptor/donor). The TR-FRET data were analysed using Graphpad Prism software.

HepG2 cells = assay: MTT assay on HepG2 cells; format: cell-based; settings: Homo sapiens, mean of three experiments, read-out: HepG2 percentage inhibitory rate

Chain of PCSK9/LDLR PPI (Q8NBP7 153-692): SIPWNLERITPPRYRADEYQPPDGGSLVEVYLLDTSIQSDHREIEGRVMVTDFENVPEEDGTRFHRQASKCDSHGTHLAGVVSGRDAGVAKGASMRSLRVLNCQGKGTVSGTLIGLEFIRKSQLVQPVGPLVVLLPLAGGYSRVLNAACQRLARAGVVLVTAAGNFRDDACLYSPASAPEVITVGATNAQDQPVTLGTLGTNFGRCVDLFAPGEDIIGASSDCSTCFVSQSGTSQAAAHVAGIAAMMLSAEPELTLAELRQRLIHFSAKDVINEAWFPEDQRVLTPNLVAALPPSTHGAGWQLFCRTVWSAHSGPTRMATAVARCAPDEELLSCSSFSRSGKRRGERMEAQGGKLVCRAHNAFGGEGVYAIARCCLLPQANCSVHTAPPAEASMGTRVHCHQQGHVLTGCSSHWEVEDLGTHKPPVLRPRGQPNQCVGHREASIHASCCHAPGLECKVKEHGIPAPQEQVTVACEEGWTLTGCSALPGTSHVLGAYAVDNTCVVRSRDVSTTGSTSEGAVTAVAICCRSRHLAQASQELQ
Chain of PCSK9/LDLR PPI (Q8NBP7 31-152 partner limits assumed): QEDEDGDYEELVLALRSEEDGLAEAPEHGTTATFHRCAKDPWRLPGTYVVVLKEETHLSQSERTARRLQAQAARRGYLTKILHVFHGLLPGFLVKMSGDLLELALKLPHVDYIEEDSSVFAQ

`COc1cc(NC(=O)c2ccc(-c3cc4c(cc3NC(=O)c3ccc(F)cc3)OCO4)cc2)cc(OC)c1OC` [A1, 4-Fluoro-N-(6-(4-((3,4,5-trimethoxyphenyl)carbamoyl)phenyl)benzo[d][1,3]dioxol-5-yl)benzamide] gave an inhibition at 10 µM (PCSK9/LDLR PPI) of 27.2 ± 1.85% and an inhibition at 10 µM (HepG2 cells) of 12.5 ± 1.06%.
`COc1cc(NC(=O)c2ccc(-c3cc4c(cc3NC(=O)c3ccc(C(F)(F)F)cc3)OCO4)cc2)cc(OC)c1OC` [A2, 4-(Trifluoromethyl)-N-(6-(4-((3,4,5-trimethoxyphenyl)carbamoyl)phenyl)benzo[d][1,3]dioxol-5-yl)benzamide] gave an inhibition at 10 µM (PCSK9/LDLR PPI) of 23.1 ± 2.17% and an inhibition at 10 µM (HepG2 cells) of 16.4 ± 1.55%.
Compound `COc1cc(NC(=O)c2ccc(-c3cc4c(cc3NC(=O)c3ccccc3)OCO4)cc2)cc(OC)c1OC` [A3, 4-(6-Benzamidobenzo[d][1,3]dioxol-5-yl)-N-(3,4,5-trimethoxyphenyl)benzamide] has an inhibition at 10 µM (PCSK9/LDLR PPI) of 5.06 ± 0.09% and an inhibition at 10 µM (HepG2 cells) of 8.78 ± 0.37%.
With `COc1cc(NC(=O)c2ccc(-c3cc4c(cc3NC(=O)c3ccccc3C(F)(F)F)OCO4)cc2)cc(OC)c1OC` [A4, 2-(Trifluoromethyl)-N-(6-(4-((3,4,5-trimethoxyphenyl)carbamoyl)phenyl)benzo[d][1,3]dioxol-5-yl)benzamide] the inhibition at 10 µM (PCSK9/LDLR PPI) was 5.28 ± 0.4% and the inhibition at 10 µM (HepG2 cells) was 7.93 ± 1.04%.
With `COc1cc(NC(=O)c2ccc(-c3cc4c(cc3NC(=O)c3ccccc3F)OCO4)cc2)cc(OC)c1OC` [A5, 2-Fluoro-N-(6-(4-((3,4,5-trimethoxyphenyl)carbamoyl)phenyl)benzo[d][1,3]dioxol-5-yl)benzamide] the inhibition at 10 µM (PCSK9/LDLR PPI) was 4.77 ± 0.31% and the inhibition at 10 µM (HepG2 cells) was 5.96 ± 0.66%.
`COc1ccc(C(=O)Nc2cc3c(cc2-c2ccc(C(=O)Nc4cc(OC)c(OC)c(OC)c4)cc2)OCO3)cc1` [A6, 4-Methoxy-N-(6-(4-((3,4,5-trimethoxyphenyl)carbamoyl)phenyl)benzo[d][1,3]dioxol-5-yl)benzamide] gave an inhibition at 10 µM (PCSK9/LDLR PPI) of 5.92 ± 0.52% and an inhibition at 10 µM (HepG2 cells) of 5.9 ± 0.42%.
In the case of `COc1cc(NC(=O)c2ccc(-c3cc4c(cc3NC(=O)c3ccccc3Cl)OCO4)cc2)cc(OC)c1OC` [A7, 2-Chloro-N-(6-(4-((3,4,5-trimethoxyphenyl)carbamoyl)phenyl)benzo[d][1,3]dioxol-5-yl)benzamide], the inhibition at 10 µM (PCSK9/LDLR PPI) is reported as 5.16 ± 0.31% and the inhibition at 10 µM (HepG2 cells) is reported as 12.4 ± 1.07%.
`COc1cc(NC(=O)c2ccc(-c3cc4c(cc3NC(=O)c3cccc(Br)c3)OCO4)cc2)cc(OC)c1OC` [A8, 3-Bromo-N-(6-(4-((3,4,5-trimethoxyphenyl)carbamoyl)phenyl)benzo[d][1,3]dioxol-5-yl)benzamide] gave an inhibition at 10 µM (PCSK9/LDLR PPI) of 5.88 ± 0.12% and an inhibition at 10 µM (HepG2 cells) of 3.66 ± 0.24%.
Work on `COc1cc(NC(=O)c2ccc(-c3cc4c(cc3NC(=O)c3cccc(F)c3)OCO4)cc2)cc(OC)c1OC` [A9, 3-Fluoro-N-(6-(4-((3,4,5-trimethoxyphenyl)carbamoyl)phenyl)benzo[d][1,3]dioxol-5-yl)benzamide] yielded an inhibition at 10 µM (PCSK9/LDLR PPI) of 22.5 ± 1.36% and an inhibition at 10 µM (HepG2 cells) of 11.7 ± 0.88%.
With `COc1ccccc1C(=O)Nc1cc2c(cc1-c1ccc(C(=O)Nc3cc(OC)c(OC)c(OC)c3)cc1)OCO2` [A10, 2-Methoxy-N-(6-(4-((3,4,5-trimethoxyphenyl)carbamoyl)phenyl)benzo[d][1,3]dioxol-5-yl)benzamide] the inhibition at 10 µM (PCSK9/LDLR PPI) was 3.05 ± 0.05% and the inhibition at 10 µM (HepG2 cells) was 4.27 ± 0.16%.
For `COc1cc(NC(=O)c2ccc(-c3cc4c(cc3NC(=O)c3cccc(C(F)(F)F)c3)OCO4)cc2)cc(OC)c1OC` [A11, 3-(Trifluoromethyl)-N-(6-(4-((3,4,5-trimethoxyphenyl)carbamoyl)phenyl)benzo[d][1,3]dioxol-5-yl)benzamide], the inhibition at 10 µM (PCSK9/LDLR PPI) was 35.2 ± 3.15% and the inhibition at 10 µM (HepG2 cells) was 7.97 ± 0.08%.
For `COc1cc(NC(=O)c2ccc(-c3cc4c(cc3NC(=O)c3ccccc3C)OCO4)cc2)cc(OC)c1OC` [A13, 2-Methyl-N-(6-(4-((3,4,5-trimethoxyphenyl)carbamoyl)phenyl)benzo[d][1,3]dioxol-5-yl)benzamide], the inhibition at 10 µM (PCSK9/LDLR PPI) was 7.65 ± 0.01% and the inhibition at 10 µM (HepG2 cells) was 5.89 ± 0.27%.
Compound `CCc1ccc(C(=O)Nc2cc3c(cc2-c2ccc(C(=O)Nc4cc(OC)c(OC)c(OC)c4)cc2)OCO3)cc1` [A14, 4-Ethyl-N-(6-(4-((3,4,5-trimethoxyphenyl)carbamoyl)phenyl)benzo[d][1,3]dioxol-5-yl)benzamide] has an inhibition at 10 µM (PCSK9/LDLR PPI) of 7.83 ± 0.26% and an inhibition at 10 µM (HepG2 cells) of 5.21 ± 0.16%.
Work on `COc1cc(NC(=O)c2ccc(-c3cc4c(cc3NC(=O)c3cc(F)cc(F)c3)OCO4)cc2)cc(OC)c1OC` [A15, 3,5-Difluoro-N-(6-(4-((3,4,5-trimethoxyphenyl)carbamoyl)phenyl)benzo[d][1,3]dioxol-5-yl)benzamide] yielded an inhibition at 10 µM (PCSK9/LDLR PPI) of 4.76 ± 0.37% and an inhibition at 10 µM (HepG2 cells) of 4.63 ± 0.22%.
For `COc1cc(NC(=O)c2ccc(-c3cc4c(cc3NC(=O)c3cc(F)ccc3F)OCO4)cc2)cc(OC)c1OC` [A16, 2,5-Difluoro-N-(6-(4-((3,4,5-trimethoxyphenyl)carbamoyl)phenyl)benzo[d][1,3]dioxol-5-yl)benzamide], the inhibition at 10 µM (PCSK9/LDLR PPI) was 4.22 ± 0.25% and the inhibition at 10 µM (HepG2 cells) was 3.33 ± 0.23%.
With `COc1cc(NC(=O)c2ccc(-c3cc4c(cc3NC(=O)c3ccc(C#N)cc3)OCO4)cc2)cc(OC)c1OC` [A17, 4-Cyano-N-(6-(4-((3,4,5-trimethoxyphenyl)carbamoyl)phenyl)benzo[d][1,3]dioxol-5-yl)benzamide] the inhibition at 10 µM (PCSK9/LDLR PPI) was 7.91 ± 0.71% and the inhibition at 10 µM (HepG2 cells) was 3.84 ± 0.11%.
Work on `O=C(Nc1ccc(Br)cc1)c1ccc(-c2cc3c(cc2NC(=O)c2ccc(CCl)cc2)OCO3)cc1` [B2, N-(4-bromophenyl)-4-(6-(4-(chloromethyl)benzamido)benzo[d][1,3]dioxol-5-yl)benzamide] yielded an inhibition at 10 µM (PCSK9/LDLR PPI) of 25.5 ± 2.22% and an inhibition at 10 µM (HepG2 cells) of 15.6 ± 1.24%.
Work on `COc1ccc(NC(=O)c2ccc(-c3cc4c(cc3NC(=O)c3ccc(CCl)cc3)OCO4)cc2)cc1` [B5, 4-(Chloromethyl)-N-(6-(4-((4-methoxyphenyl)carbamoyl)phenyl)benzo[d][1,3]dioxol-5-yl)benzamide] yielded an inhibition at 10 µM (PCSK9/LDLR PPI) of 6.18 ± 0.08% and an inhibition at 10 µM (HepG2 cells) of 7.22 ± 0.15%.
In the case of `CCOc1ccc(NC(=O)c2ccc(-c3cc4c(cc3NC(=O)c3ccc(CCl)cc3)OCO4)cc2)cc1` [B6, 4-(Chloromethyl)-N-(6-(4-((4-ethoxyphenyl)carbamoyl)phenyl)benzo[d][1,3]dioxol-5-yl)benzamide], the inhibition at 10 µM (PCSK9/LDLR PPI) is reported as 6.97 ± 0.43% and the inhibition at 10 µM (HepG2 cells) is reported as 7.04 ± 0.27%.
In the case of `COc1ccc(NC(=O)c2ccc(-c3cc4c(cc3NC(=O)c3ccc(CCl)cc3)OCO4)cc2)cc1OC` [B7, 4-(Chloromethyl)-N-(6-(4-((3,4-dimethoxyphenyl)carbamoyl)phenyl)benzo[d][1,3]dioxol-5-yl)benzamide], the inhibition at 10 µM (PCSK9/LDLR PPI) is reported as 16.3 ± 0.62% and the inhibition at 10 µM (HepG2 cells) is reported as 5.45 ± 0.39%.
Compound `Cc1ccc(NC(=O)c2ccc(-c3cc4c(cc3NC(=O)c3ccc(CCl)cc3)OCO4)cc2)cc1` [B8, 4-(Chloromethyl)-N-(6-(4-(p-tolylcarbamoyl)phenyl)benzo[d][1,3]dioxol-5-yl)benzamide] has an inhibition at 10 µM (PCSK9/LDLR PPI) of 3.15 ± 0.02% and an inhibition at 10 µM (HepG2 cells) of 3.35 ± 0.16%.
`CCc1ccc(NC(=O)c2ccc(-c3cc4c(cc3NC(=O)c3ccc(CCl)cc3)OCO4)cc2)cc1` [B9, 4-(Chloromethyl)-N-(6-(4-((4-ethylphenyl)carbamoyl)phenyl)benzo[d][1,3]dioxol-5-yl)benzamide] was tested, and the inhibition at 10 µM (PCSK9/LDLR PPI) was 3.36 ± 0.23% and the inhibition at 10 µM (HepG2 cells) was 6.36 ± 0.42%.
In the case of `CCCCCc1ccc(NC(=O)c2ccc(-c3cc4c(cc3NC(=O)c3ccc(CCl)cc3)OCO4)cc2)cc1` [B10, 4-(Chloromethyl)-N-(6-(4-((4-pentylphenyl)carbamoyl)phenyl)benzo[d][1,3]dioxol-5-yl)benzamide], the inhibition at 10 µM (PCSK9/LDLR PPI) is reported as 5.87 ± 0.01% and the inhibition at 10 µM (HepG2 cells) is reported as 2.4 ± 0.19%.
For `O=C(Nc1cccc(-c2nc3ccccc3o2)c1)c1ccc(NC(=O)c2cc3ccccc3o2)cc1` [SBC-115337, reference compound], the IC50 (PCSK9/LDLR PPI; dose-dependent IC50 plot, Figure 3, read-out: PCSK9 IC50 (inhibition of PCSK9/LDLR PPI)) was 12.9 µM.
